Test results published in PubChem BioAssay (NCI).
Values joined by “and” are separate entries in the source; they are usually repeats but may differ in a detail not shown here. Equal entries are not always repeated.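 Five concentrations, 48 hours, 96-well plates. The concentration for 50% growth inhibition is given as GI50. The concentration for full growth arrest is given as TGI.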

Experiments:
Test in all cases: NCI anticancer screen, dose series, 48 h
SK-MEL-28 melanoma = tested on: SK-MEL-28 melanoma
TK-10 renal = tested on: TK-10 renal
NCI-H226 lung = tested on: NCI-H226 lung
SR leukemia = tested on: SR leukemia
NCI-H522 lung = tested on: NCI-H522 lung
EKVX NSCLC = tested on: EKVX NSCLC
MALME-3M melanoma = tested on: MALME-3M melanoma
SN12C renal = tested on: SN12C renal
T-47D breast = tested on: T-47D breast
NCI/ADR-RES ovarian = tested on: NCI/ADR-RES ovarian

| SMILES | TGI (SK-MEL-28 melanoma) [µM] | TGI (TK-10 renal) [µM] | TGI (NCI-H226 lung) [µM] | TGI (SR leukemia) [µM] | TGI (NCI-H522 lung) [µM] | TGI (EKVX NSCLC) [µM] | TGI (MALME-3M melanoma) [µM] | TGI (SN12C renal) [µM] | GI50 (T-47D breast) [nM] | TGI (T-47D breast) [µM] | GI50 (NCI/ADR-RES ovarian) | TGI (NCI/ADR-RES ovarian) [µM] | GI50 (TK-10 renal) [nM] | GI50 (NCI-H226 lung) | GI50 (SR leukemia) | GI50 (NCI-H522 lung) | GI50 (MALME-3M melanoma) [nM] | GI50 (SN12C renal) | GI50 (SK-MEL-28 melanoma) [nM] | GI50 (EKVX NSCLC) |
| --- | --- | --- | --- | --- | --- | --- | --- | --- | --- | --- | --- | --- | --- | --- | --- | --- | --- | --- | --- | --- |
| C=C[C@@H](C)[C@]1(C(=O)OC)CCCC12OCCO2 | > 100 | > 100 | > 100 | > 100 | > 100 | > 100 | > 100 | > 100 | – | – | – | – | – | – | – | – | – | – | – | – |
| C[C@@H](Oc1cc(-n2cnc3ccc(OC4CCN(C)CC4)cc32)sc1C(N)=O)c1ccccc1Cl | – | 5.75 | 5.49 | 0.532 | 5.03 | – | 7.89 | 4.75 | 3570 | 8.73 | 95.5 nM | 3.58 | 1790 | 289 nM | 10.3 nM | 11.7 nM | 3890 | 255 nM | – | – |
| COc1ccc(Nc2nc3cc(N)cc(N)c3nc2-c2ccccc2)cc1 | 30.5 | 42.5 | 98.4 | > 100 | 27.9 | > 100 | 28.3 | 57.4 | 17800 | 53.8 | 18900 nM | 44.9 | 16500 | 23800 nM | 19200 nM | 14700 nM | 15000 | 20600 nM | 16800 | 26000 nM |
| CCOC(=O)c1cc(C(=O)c2ccc(OC)cc2)n2ccc(/C=C/c3cc[n+](CC(=O)c4ccc(OC)cc4)cc3)cc12 | 3.69 | 5.76 | – | 2.29 | – | > 100 | 3.66 | – | 1910 | 4.43 | > 100000 nM | > 100 | 2010 | – | 367 nM | – | 1670 | – | 1870 | 2800 nM |
| CC[C@H](C)[C@H](NC(=O)[C@H]1CCCCN1C)C(=O)N(C)[C@H](C[C@@H](OC(C)=O)c1cccc(C(=O)N[C@@H](Cc2ccccc2)C[C@H](C)C(=O)OC)n1)C(C)C | – | > 25 | > 25 | > 25 | 0.00894 | > 25 | – | > 25 | 0.953 | – | 175 nM and 276 nM | > 25 | – | 456 nM and 51.4 nM | 0.55 nM and 2.5 nM | 1.54 nM and 2.5 nM | – | 5.67 nM and 11.3 nM | 9.37 | 8.38 nM and 8.63 nM |
| CC(C)(O)C(O)COc1c2c(cc3oc(=O)ccc13)OCO2 (centres undefined) | > 100 | > 100 | > 100 | > 100 | > 100 | > 100 | > 100 | > 100 | – | – | – | – | – | – | – | – | – | – | – | – |
| CC1Cc2c(Cl)ncnc2N(C)c2ccc(Cl)cc21 (centres undefined) | 95.1 | 13.2 | 0.602 | > 100 | 0.776 | 9.73 | 3.67 | 19.3 | 521 | > 100 | 333 nM | 32.3 | 315 | 241 nM | 467 nM | 232 nM | 276 | 411 nM | 394 | 299 nM |
| O=C(C(=O)c1cc2ccccc2[nH]1)c1cc2ccccc2[nH]1 | > 347 | > 347 | > 347 | > 110 | 114 | > 347 | > 347 | > 347 | – | – | – | – | – | – | – | – | – | – | – | – |
| CN(Cc1ccccc1)Cn1ccnc1 | > 68 | > 100 | > 100 | > 66.8 | > 100 | > 100 | 50.4 | > 100 | – | > 100 | – | > 100 | – | – | – | – | – | – | – | – |
| CN[C@H]1CN(c2ccc3c(=O)c(C(=O)O)cn(-c4nccs4)c3n2)C[C@@H]1OC | 3.01 | 4.13 | 3.24 | 0.777 | 2.98 | 7.17 | 2.27 | 5.69 | 1230 | 7.76 | 1300 nM | 7.56 | 1100 | 632 nM | 50.8 nM | 733 nM | 516 | 364 nM | 1310 | 1970 nM |
| COc1cc(/C=C2\C(=O)N(C(=O)Cc3ccccc3)N=C2C)cc(OC)c1OC | > 100 | > 100 | > 100 | > 100 | > 100 | > 100 | > 100 | > 100 | – | – | – | – | – | – | – | – | – | – | – | – |
| O=C(/C=C\c1ccccc1O)c1ccc(O)cc1O | > 100 | > 100 | > 100 | > 100 | > 100 | > 100 | > 100 | > 100 | – | – | – | – | – | – | – | – | – | – | – | – |
| COc1ccc(Cc2c3cc(O)c(=O)cc-3ccn2C)cc1 | > 92.9 | > 100 | 83.3 | 37 | > 100 | > 100 | > 88.1 | > 100 | – | – | – | – | – | – | – | – | – | – | – | – |
| O=C1C=C(Nc2ccc(Cl)cc2Cl)c2ccccc2C1=O | > 100 | > 100 | 87.2 | 74.9 | > 100 | > 100 | 71 | > 100 | – | – | – | – | – | – | – | – | – | – | – | – |
| Cc1ccc(C)c(N2C(=O)C(=O)C(c3nc4ccccc4s3)/C(=N/N)C2=O)c1 (centres undefined) | > 100 | > 100 | > 100 | > 100 | > 100 | > 100 | > 100 | > 100 | – | – | – | – | – | – | – | – | – | – | – | – |
| C/C(=N\N=C(N)N)C(CN1CCCCC1)C(c1ccccc1)c1c(O)c2ccccc2oc1=O (centres undefined) | > 100 | > 100 | > 100 | > 100 | > 100 | > 100 | > 100 | > 100 | – | – | – | – | – | – | – | – | – | – | – | – |
| Cc1cnc2ccc(C)c([N+](=O)[O-])c2c1NCCCN(C)C | > 100 | > 100 | > 100 | > 100 | > 100 | > 100 | > 100 | > 100 | – | – | – | – | – | – | – | – | – | – | – | – |
| C=C(CCCCC)CN1CCCC1C(C)=O (centres undefined) | > 100 | > 100 | 68.9 | 40.1 | 34.7 | > 100 | > 100 | 98.6 | – | – | – | – | – | – | – | – | – | – | – | – |
| COc1cc(C2C(Cl)C(=O)N2NC(=O)Cc2ccccc2)cc(Br)c1O (centres undefined) | > 100 | > 100 | > 100 | > 100 | > 100 | > 100 | > 100 | > 100 | – | – | – | – | – | – | – | – | – | – | – | – |
| CCC[C@H]1O[C@@H]2CC(=O)O[C@@H]2C2=C1C(=O)C=CC2=O | 31.5 | > 57.3 | 18.4 | 49.8 | 4.68 | > 62.4 | 32.3 | 32.6 | – | – | – | – | – | – | – | – | – | – | – | – |
